According to US12246002B2, “Pharmaceutical composition for prevention or treatment of circadian rhythm-related disorders, comprising oxyiminomethylbenzene derivative as active ingredient” (KOREA UNIVERSITY RESEARCH AND BUSINESS FOUNDATION, priority 2018, dated 2025):

Experiments:
CLOCK:BMAL1 dimer = experiment: E-box-LUC reporter assay of transcriptional activity of CLOCK:BMAL1 dimer in NIH-3T3 fibroblast line; type: cell-based; details: NIH-3T3 E-box-LUC cells; for Max (%) maximum activity of E-box-LUC reporter compared to the control group: four parameter logistic fit, DMSO control
Description: The NIH-3T3 fibroblast line (Non-patent document 6) expressing the E-box-LUC reporter was used to evaluate the effect of the oxyiminomethylbenzene derivative on the transcriptional activity of the CLOCK:BMAL1 dimer mediated by E-box. Reporter-expressing fibroblast line was maintained and cultured in an incubator in a humidified state at 5% carbon dioxide and 37 degrees Celsius, using Dulbecco's modified eagles medium (Invitrogen) having 10% fetal bovine serum, 1% penicillin/streptomycin (Invitrogen) and 1% L-glutamine added thereto.
(§1) The reporter-expressing cell line was dispensed and cultured in a 48-well culture plate 24 hours before compound treatment. The cultured cells were finally treated with a compound to a concentration of 0.1, 0.3, 1.0, 3.0, 10, 30 or 100 μM. As a control group (0 μM), cells treated with the same amount of dimethyl sulfoxide (DMSO) were used. After 36 hours elapsed after treatment of the compound, the cells were washed twice with 1× D-PBS, and was lysed for 15 minutes using 100 μl of a cell lysis buffer (Promega) per well. After reacting a 20 μl sample of the lysate with the same amount of a luciferase assay reagent (Promega), the luciferase activity was measured using a luminometer (TD-20/20 Luminometer, Turner systems). The measured luciferase activity was corrected based on the protein content of the lysate. The protein content was measured using a Bradford staining reagent from Bio-rad.
(§2) The concentration-response correlation for each derivative was converted to a standard curve using Four Parameter Logistic Equation. The calculation process utilized the statistical analysis function provided by SigmaPlot 10.0 ([…], Systat Software Inc.). Based on the concentration-response curve, the maximum activity (Max) and EC50 values of each derivative were calculated and input in [Table 1]. When the compound induces cell death, cytotoxicity (Tox.) was input to the EC50 field. The concentration-reaction correlation curves of compounds of Chemical Formula 8-9, 9-9, 8-10 and 9-10 as a representative example are shown in FIG. 1.

NIH-3T3 fibroblast line = experiment: Cytotoxicity (cell death) seen in the E-box-LUC reporter assay; type: cell-based; details: for cytotoxicity (Tox.) input to the EC50 field when the compound induces cell death: NIH-3T3 E-box-LUC cells, 0.1-100 μM, 36 hours
Description: as §1, §2

PER2-LUC fusion protein = experiment: Circadian rhythm expression of PER2-LUC fusion protein in PER2-LUC knock-in fibroblasts (real-time bioluminescence, Cosinor analysis); type: cell-based, mouse; details: 20 μM, PER2-LUC KI fibroblasts, FIG. 3; for amplitude of the circadian rhythm expression of the PER2-LUC fusion protein: DEX synchronized, up to 5 days
Description: The effects of the compounds (8-9 and 8-10) prepared in Example 1 on the circadian rhythm expression of the molecular biological clock whose the cells are expressed through inhibition of CRY and enhancement of transcriptional activity of CLOCK:BMAL1 were evaluated. To this end, a mutant fibroblast line (PER2-LUC knock-in fibroblast) was used in which a PER2-LUC fusion protein is expressed via linking the luciferase gene from the position where the stop codon of the PER2 gene is located. The cell line was established from lung tissue of PER2-LUC knock-in mutant mice (Non-patent document 31) 1 week after birth. PER2-LUC knock-in (KI) fibroblasts was maintained and cultured in the incubator under a humidified state at 5% carbon dioxide and 37 degrees Celsius using Dulbecco's modified Eagle medium supplemented with 10% serum, 1% penicillin/streptomycin, and 1% L-glutamine.
After treating the cultured cells with 200 nM dexamethasone (DEX) for 2 hours for synchronization, the DEX was replaced with a medium including the substrate of luciferase that is, luciferin (final concentration 0.1 mM) with 20 μM of the compound of Chemical Formula 8-9 or 8-10. As a control group, cells (VEH) treated with the same amount of dimethyl sulfoxide instead of the compound were used. As another comparative group, the cells treated with a 2-ethoxypropionic acid-based CRY inhibitor (Non-patent document 6), that is, KS15 (final concentration 20 μM) was used. The control and the KS15-treated cells were also replaced with a medium including luciferin of the same concentration.
Bioluminescence signals generated from cells cultured in a medium including the compound and luciferin were continuously measured for up to 5 days at 10-minute intervals using a real-time bioluminescence measurement equipment (Kronos-DIO, ATTO). The results were identified through statistical detrending. The circadian rhythm expression pattern of the PER2-LUC fusion protein was analyzed using the Cosinor analysis program (free distribution on http://www.circadian.org) to determine the amplitude, period, and robustness of the periodicity. Based on the results obtained through 4 replicate experiments, the statistical significance of the change according to compound treatment was verified.

SMILES | Max (%) maximum activity of E-box-LUC reporter compared to the control group (CLOCK:BMAL1 dimer; 0.1-100 μM, 36 hours) [%] | other results
COC(=O)COc1cccc(C(C)=NOCc2cccc(C(F)(F)F)c2)c1 [Compound 8-1, methyl 2-{3-[N-{[3-(trifluoromethyl)phenyl]methoxy}ethanimidoyl]phenoxy}acetate] |  | EC50 (CLOCK:BMAL1 dimer; 0.1-100 μM, 36 hours): 27.4 µM
COC(=O)COc1cccc(C(C)=NOCc2ccc(Br)cc2)c1 [Compound 8-5, methyl 2-(3-{N-[(4-bromophenyl)methoxy]ethanimidoyl}phenoxy)acetate] |  | cytotoxicity (Tox.) input to the EC50 field when the compound induces cell death (NIH-3T3 fibroblast line): (Tox.)
CC(=NOCc1ccc(Br)cc1)c1cccc(OCC(=O)O)c1 [Compound 8-6, (3-{N-[(4-bromophenyl)methoxy]ethanimidoyl}phenoxy)acetic acid] | 123.78 | cytotoxicity (Tox.) input to the EC50 field when the compound induces cell death (NIH-3T3 fibroblast line): (Tox.)
CC(=NOCc1ccc(Br)cc1)c1cccc(OCC(=O)NCc2ccccn2)c1 [Compound 8-7, 2-{3-[N-(4-bromophenyl)methoxyethanimidoyl]phenoxy}-N-[(pyridin-2-yl)methyl]acetamide] | 129.69 | 
CC(=NOCc1ccc(Br)cc1)c1cccc(OCC(=O)NCCc2ncc[nH]2)c1 [Compound 8-8, 2-{3-[N-(4-bromophenyl)methoxyethanimidoyl]phenoxy}-N-[2-(1H-imidazol-2-yl)ethyl]acetamide] | 121.10 | cytotoxicity (Tox.) input to the EC50 field when the compound induces cell death (NIH-3T3 fibroblast line): (Tox.)
COC(=O)COc1cccc(C(C)=NOCc2ccc([N+](=O)[O-])cc2)c1 [Compound 8-9, methyl 2-(3-{N-[(4-nitrophenyl)methoxy]ethanimidoyl}phenoxy)acetate] |  | activity of E-box-LUC (concentration-response, FIG. 1) (CLOCK:BMAL1 dimer): increase the activity of E-box-LUC in a concentration-dependent manner; cytotoxicity (NIH-3T3 fibroblast line; at up to 100 μM): No significant cytotoxicity; amplitude of the circadian rhythm expression of the PER2-LUC fusion protein (PER2-LUC fusion protein): increases the amplitude of the circadian rhythm expression of the PER2-LUC fusion protein at a significant level; period of the circadian rhythm expression of the PER2-LUC fusion protein (PER2-LUC fusion protein): not affecting the period; robustness of the circadian rhythm expression of the PER2-LUC fusion protein (PER2-LUC fusion protein): not affecting the period or robustness
CC(=NOCc1ccc([N+](=O)[O-])cc1)c1cccc(OCC(=O)O)c1 [Compound 8-10, (3-{N-[(4-nitrophenyl)methoxy]ethanimidoyl}phenoxy)acetic acid] |  | activity of E-box-LUC (concentration-response, FIG. 1) (CLOCK:BMAL1 dimer): increase the activity of E-box-LUC in a concentration-dependent manner; amplitude of the circadian rhythm expression of the PER2-LUC fusion protein (PER2-LUC fusion protein): increases the amplitude of the circadian rhythm expression of the PER2-LUC fusion protein at a significant level; period of the circadian rhythm expression of the PER2-LUC fusion protein (PER2-LUC fusion protein): not affecting the period; robustness of the circadian rhythm expression of the PER2-LUC fusion protein (PER2-LUC fusion protein): not affecting the period or robustness
CC(=NOCc1ccc(S(C)(=O)=O)cc1)c1cccc(OCC(=O)O)c1 [Compound 8-12, {3-[N-{[4-(methanesulfonyl)phenyl]methoxy}ethanimidoyl]phenoxy}acetic acid] | 98.71 | 
COC(=O)COc1cccc(C(C)=NOCc2ccc(F)cc2)c1 [Compound 8-13] | 119.93 | cytotoxicity (Tox.) input to the EC50 field when the compound induces cell death (NIH-3T3 fibroblast line): (Tox.)
COC(=O)COc1ccc(C(C)=NOCc2cccc(C(F)(F)F)c2)cc1 [Compound 9-1, methyl 2-{4-[N-{[3-(trifluoromethyl)phenyl]methoxy}ethanimidoyl]phenoxy}acetate] | 107.89 | 
CC(=NOCc1cccc(C(F)(F)F)c1)c1ccc(OCC(=O)O)cc1 [Compound 9-2, {4-[N-{[3-(trifluoromethyl)phenyl]methoxy}ethanimidoyl]phenoxy}acetic acid] | 115.15 | 
COC(=O)COc1ccc(C(C)=NOCc2ccc(OC)cc2)cc1 [Compound 9-3, methyl 2-(4-{N-[(4-methoxyphenyl)methoxy]ethanimidoyl}phenoxy)acetate] | 103.87 | 
COc1ccc(CON=C(C)c2ccc(OCC(=O)O)cc2)cc1 [Compound 9-4, (4-{N-[(4-methoxyphenyl)methoxy]ethanimidoyl}phenoxy)acetic acid] | 102.65 | 
COC(=O)COc1ccc(C(C)=NOCc2ccc(Br)cc2)cc1 [Compound 9-5, methyl 2-(4-{N-[(4-bromophenyl)methoxy]ethanimidoyl}phenoxy)acetate] | 111.88 | 
CC(=NOCc1ccc(Br)cc1)c1ccc(OCC(=O)O)cc1 [Compound 9-6, (4-{N-[(4-bromophenyl)methoxy]ethanimidoyl}phenoxy)acetic acid] | 106.70 | 
CC(=NOCc1ccc(Br)cc1)c1ccc(OCC(=O)NCc2ccccn2)cc1 [Compound 9-7, 2-{4-[N-(4-bromophenyl)methoxyethanimidoyl]phenoxy}-N-[(pyridin-2-yl)methyl]acetamide] | 135.47 | 
CC(=NOCc1ccc(Br)cc1)c1ccc(OCC(=O)NCCc2ncc[nH]2)cc1 [Compound 9-8, 2-{4-[N-(4-bromophenyl)methoxyethanimidoyl]phenoxy}-N-[2-(1H-imidazol-2-yl)ethyl]acetamide] | 120.89 | 
COC(=O)COc1ccc(C(C)=NOCc2ccc([N+](=O)[O-])cc2)cc1 [Compound 9-9, methyl 2-(4-{N-[(4-nitrophenyl)methoxy]ethanimidoyl}phenoxy)acetate] | 113.52 | 
CC(=NOCc1ccc([N+](=O)[O-])cc1)c1ccc(OCC(=O)O)cc1 [Compound 9-10, (4-{N-[(4-nitrophenyl)methoxy]ethanimidoyl}phenoxy)acetic acid] | 108.43 | 
COC(=O)COc1ccc(C(C)=NOCc2ccc(S(C)(=O)=O)cc2)cc1 [Compound 9-11, methyl 2-{4-[N-{[4-(methanesulfonyl)phenyl]methoxy}ethanimidoyl]phenoxy}acetate] | 100.39 | 
CC(=NOCc1ccc(S(C)(=O)=O)cc1)c1ccc(OCC(=O)O)cc1 [Compound 9-12, {4-[N-{[4-(methanesulfonyl)phenyl]methoxy}ethanimidoyl]phenoxy}acetic acid] | 111.38 | 
